Test results from ChEMBL document CHEMBL4507259 (2021).

Columns and labels:
[1] = biological target: Ephrin type-B receptor 1 (Homo sapiens) (UniProt P54762); conditions: Compound concentration 1000.0 nM
[2] = biological target: Tumor necrosis factor (Homo sapiens) (UniProt P01375); assay: TNF-alpha (h) CEREP ligand profiling; conditions: filed as agonist, Compound concentration 10.0 uM
[3] = biological target: Serine/threonine-protein kinase MRCK beta (Homo sapiens) (UniProt Q9Y5S2); conditions: Compound concentration 1000.0 nM
[4] = biological target: cAMP-dependent protein kinase catalytic subunit alpha (Homo sapiens) (UniProt P17612); conditions: Compound concentration 1000.0 nM
[5] = biological target: Serine/threonine-protein kinase Sgk1 (Homo sapiens) (UniProt O00141); conditions: Compound concentration 1000.0 nM
[6] = biological target: Mitogen-activated protein kinase 12 (Homo sapiens) (UniProt P53778); conditions: Compound concentration 1000.0 nM
[7] = biological target: Serine/threonine-protein kinase Nek11 (Homo sapiens) (UniProt Q8NG66); conditions: Compound concentration 1000.0 nM
Chain of Serine/threonine-protein kinase Nek11 (Homo sapiens) (Q8NG66 whole entry): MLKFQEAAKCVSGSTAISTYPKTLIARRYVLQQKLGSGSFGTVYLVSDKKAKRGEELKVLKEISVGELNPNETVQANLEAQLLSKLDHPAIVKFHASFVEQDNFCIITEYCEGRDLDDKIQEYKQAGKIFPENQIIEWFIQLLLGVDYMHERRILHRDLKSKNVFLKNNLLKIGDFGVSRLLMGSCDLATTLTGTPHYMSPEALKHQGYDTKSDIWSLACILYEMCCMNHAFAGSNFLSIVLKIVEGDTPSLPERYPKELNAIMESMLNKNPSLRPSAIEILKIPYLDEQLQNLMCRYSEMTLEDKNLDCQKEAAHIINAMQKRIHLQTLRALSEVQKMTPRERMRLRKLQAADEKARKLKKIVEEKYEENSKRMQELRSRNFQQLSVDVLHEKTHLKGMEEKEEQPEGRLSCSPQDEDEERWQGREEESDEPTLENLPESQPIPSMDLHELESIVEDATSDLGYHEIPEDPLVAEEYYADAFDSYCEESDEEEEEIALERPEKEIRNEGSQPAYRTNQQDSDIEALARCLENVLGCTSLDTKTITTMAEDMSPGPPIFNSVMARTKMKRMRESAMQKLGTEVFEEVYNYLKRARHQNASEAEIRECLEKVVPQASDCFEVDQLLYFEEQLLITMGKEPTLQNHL

[8] = biological target: T1, Muscarinic acetylcholine receptor M1 (Homo sapiens) (UniProt P11229); conditions: Compound concentration 10.0 uM
T1 sequence (whole entry): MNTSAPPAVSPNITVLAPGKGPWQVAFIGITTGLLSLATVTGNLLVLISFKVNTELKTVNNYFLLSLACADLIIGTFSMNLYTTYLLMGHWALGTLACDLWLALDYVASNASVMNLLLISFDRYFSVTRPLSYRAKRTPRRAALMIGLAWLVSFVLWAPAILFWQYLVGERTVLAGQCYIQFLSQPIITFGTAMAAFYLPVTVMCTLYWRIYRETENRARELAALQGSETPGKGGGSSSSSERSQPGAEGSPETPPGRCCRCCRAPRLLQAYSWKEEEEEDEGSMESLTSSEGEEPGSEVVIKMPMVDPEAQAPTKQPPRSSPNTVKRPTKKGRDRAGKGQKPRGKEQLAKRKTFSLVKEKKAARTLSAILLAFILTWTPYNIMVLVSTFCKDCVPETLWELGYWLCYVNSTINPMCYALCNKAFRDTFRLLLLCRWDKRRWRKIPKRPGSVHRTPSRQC

[9] = biological target: Fibroblast growth factor receptor 2 (Homo sapiens) (UniProt P21802); conditions: Compound concentration 1000.0 nM
[10] = biological target: Citron Rho-interacting kinase (Homo sapiens) (UniProt O14578); conditions: Compound concentration 1000.0 nM
[11] = biological target: Serine/threonine-protein kinase 32C (Homo sapiens) (UniProt Q86UX6); conditions: Compound concentration 1000.0 nM
[12] = biological target: Serine/threonine-protein kinase TAO3 (Homo sapiens) (UniProt Q9H2K8); conditions: Compound concentration 1000.0 nM
[13] = biological target: MAP kinase-interacting serine/threonine-protein kinase 2 (Homo sapiens) (UniProt Q9HBH9); conditions: Compound concentration 1000.0 nM
[14] = biological target: Tyrosine-protein kinase ABL1 (Homo sapiens) (UniProt P00519); conditions: Compound concentration 1000.0 nM
[15] = biological target: T2, Alpha-2B adrenergic receptor (Homo sapiens) (UniProt P18089); conditions: Compound concentration 10.0 uM
T2 sequence (whole entry): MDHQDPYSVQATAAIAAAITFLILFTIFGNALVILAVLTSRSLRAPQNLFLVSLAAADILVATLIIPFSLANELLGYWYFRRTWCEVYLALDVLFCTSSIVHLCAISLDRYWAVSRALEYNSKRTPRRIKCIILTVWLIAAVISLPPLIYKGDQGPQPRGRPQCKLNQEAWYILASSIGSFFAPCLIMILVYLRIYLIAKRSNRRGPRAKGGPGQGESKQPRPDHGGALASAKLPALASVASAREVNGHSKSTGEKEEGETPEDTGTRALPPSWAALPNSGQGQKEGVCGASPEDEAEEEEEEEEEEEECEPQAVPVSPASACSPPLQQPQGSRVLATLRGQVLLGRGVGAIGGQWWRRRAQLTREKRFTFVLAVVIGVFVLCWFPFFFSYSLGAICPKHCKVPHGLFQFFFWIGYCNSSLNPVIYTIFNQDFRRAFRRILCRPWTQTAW

[16] = biological target: Dual specificity mitogen-activated protein kinase kinase 3 (Homo sapiens) (UniProt P46734); conditions: Compound concentration 1000.0 nM
Chain of Dual specificity mitogen-activated protein kinase kinase 3 (Homo sapiens) (P46734 whole entry): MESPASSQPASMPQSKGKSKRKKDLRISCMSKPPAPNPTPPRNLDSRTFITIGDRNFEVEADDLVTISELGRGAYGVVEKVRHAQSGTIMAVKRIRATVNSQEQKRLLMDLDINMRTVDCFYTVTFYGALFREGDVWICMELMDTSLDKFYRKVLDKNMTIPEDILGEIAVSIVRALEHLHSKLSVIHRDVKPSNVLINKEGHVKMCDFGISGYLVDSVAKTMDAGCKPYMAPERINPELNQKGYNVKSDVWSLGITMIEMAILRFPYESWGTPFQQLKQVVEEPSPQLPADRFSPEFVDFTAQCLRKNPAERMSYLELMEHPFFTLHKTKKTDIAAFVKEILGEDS

[17] = biological target: Interferon-induced, double-stranded RNA-activated protein kinase (Homo sapiens) (UniProt P19525); conditions: Compound concentration 1000.0 nM
Chain of Interferon-induced, double-stranded RNA-activated protein kinase (Homo sapiens) (P19525 whole entry): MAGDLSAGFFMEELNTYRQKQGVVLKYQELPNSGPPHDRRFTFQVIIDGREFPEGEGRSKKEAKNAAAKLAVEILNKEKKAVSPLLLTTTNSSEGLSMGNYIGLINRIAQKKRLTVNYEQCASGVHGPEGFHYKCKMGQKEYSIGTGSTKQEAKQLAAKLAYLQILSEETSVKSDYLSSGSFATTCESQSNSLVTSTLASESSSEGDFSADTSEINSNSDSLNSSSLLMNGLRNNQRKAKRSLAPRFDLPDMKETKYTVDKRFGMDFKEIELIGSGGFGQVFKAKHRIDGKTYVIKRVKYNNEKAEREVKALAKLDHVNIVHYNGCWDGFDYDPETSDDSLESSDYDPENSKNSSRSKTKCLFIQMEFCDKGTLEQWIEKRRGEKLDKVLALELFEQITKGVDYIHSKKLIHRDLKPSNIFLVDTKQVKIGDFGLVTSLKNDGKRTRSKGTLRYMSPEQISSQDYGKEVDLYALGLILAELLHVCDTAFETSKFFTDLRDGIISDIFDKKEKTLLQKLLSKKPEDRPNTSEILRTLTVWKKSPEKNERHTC

[18] = biological target: Serine/threonine-protein kinase pim-2 (Homo sapiens) (UniProt Q9P1W9); conditions: Compound concentration 1000.0 nM
[19] = biological target: Cyclin-dependent kinase 4 (Homo sapiens) (UniProt P11802); conditions: Compound concentration 1000.0 nM
[20] = biological target: Phosphatidylinositol 4,5-bisphosphate 3-kinase catalytic subunit delta isoform (Homo sapiens) (UniProt O00329); conditions: Compound concentration 1000.0 nM
[21] = biological target: Ribosomal protein S6 kinase alpha-5 (Homo sapiens) (UniProt O75582); conditions: Compound concentration 1000.0 nM
[22] = biological target: Dual specificity mitogen-activated protein kinase kinase 4 (Homo sapiens) (UniProt P45985); conditions: Compound concentration 1000.0 nM
[23] = biological target: Cyclin-dependent kinase 19 (Homo sapiens) (UniProt Q9BWU1); conditions: Compound concentration 1000.0 nM
[24] = biological target: Non-receptor tyrosine-protein kinase TNK1 (Homo sapiens) (UniProt Q13470); conditions: Compound concentration 1000.0 nM
[25] = biological target: Serine/threonine-protein kinase TNNI3K (Homo sapiens) (UniProt Q59H18); conditions: Compound concentration 1000.0 nM
[26] = biological target: D(1A) dopamine receptor (Homo sapiens) (UniProt P21728); conditions: Compound concentration 10.0 uM
[27] = biological target: Serine/threonine-protein kinase WNK1 (Homo sapiens) (UniProt Q9H4A3); conditions: Compound concentration 1000.0 nM
[28] = biological target: Serine/threonine-protein kinase PRP4 homolog (Homo sapiens) (UniProt Q13523); conditions: Compound concentration 1000.0 nM
[29] = biological target: Calcium/calmodulin-dependent protein kinase type IV (Homo sapiens) (UniProt Q16566); conditions: Compound concentration 1000.0 nM
Chain of Calcium/calmodulin-dependent protein kinase type IV (Homo sapiens) (Q16566 whole entry): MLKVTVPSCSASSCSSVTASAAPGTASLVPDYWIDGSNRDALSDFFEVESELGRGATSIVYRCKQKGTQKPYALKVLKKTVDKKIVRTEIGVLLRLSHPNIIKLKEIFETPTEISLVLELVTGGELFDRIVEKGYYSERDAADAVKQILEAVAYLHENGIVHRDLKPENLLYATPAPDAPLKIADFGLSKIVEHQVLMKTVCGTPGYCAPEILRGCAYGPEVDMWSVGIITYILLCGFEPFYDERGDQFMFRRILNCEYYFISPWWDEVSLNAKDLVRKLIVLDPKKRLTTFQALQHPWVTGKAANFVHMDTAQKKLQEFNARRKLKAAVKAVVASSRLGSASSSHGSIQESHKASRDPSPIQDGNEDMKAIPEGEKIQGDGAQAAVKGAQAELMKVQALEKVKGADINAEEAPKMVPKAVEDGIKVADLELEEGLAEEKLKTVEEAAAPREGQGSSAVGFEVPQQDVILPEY

[30] = biological target: Tyrosine-protein kinase JAK1 (Homo sapiens) (UniProt P23458); conditions: Compound concentration 1000.0 nM
Chain of Tyrosine-protein kinase JAK1 (Homo sapiens) (P23458 whole entry): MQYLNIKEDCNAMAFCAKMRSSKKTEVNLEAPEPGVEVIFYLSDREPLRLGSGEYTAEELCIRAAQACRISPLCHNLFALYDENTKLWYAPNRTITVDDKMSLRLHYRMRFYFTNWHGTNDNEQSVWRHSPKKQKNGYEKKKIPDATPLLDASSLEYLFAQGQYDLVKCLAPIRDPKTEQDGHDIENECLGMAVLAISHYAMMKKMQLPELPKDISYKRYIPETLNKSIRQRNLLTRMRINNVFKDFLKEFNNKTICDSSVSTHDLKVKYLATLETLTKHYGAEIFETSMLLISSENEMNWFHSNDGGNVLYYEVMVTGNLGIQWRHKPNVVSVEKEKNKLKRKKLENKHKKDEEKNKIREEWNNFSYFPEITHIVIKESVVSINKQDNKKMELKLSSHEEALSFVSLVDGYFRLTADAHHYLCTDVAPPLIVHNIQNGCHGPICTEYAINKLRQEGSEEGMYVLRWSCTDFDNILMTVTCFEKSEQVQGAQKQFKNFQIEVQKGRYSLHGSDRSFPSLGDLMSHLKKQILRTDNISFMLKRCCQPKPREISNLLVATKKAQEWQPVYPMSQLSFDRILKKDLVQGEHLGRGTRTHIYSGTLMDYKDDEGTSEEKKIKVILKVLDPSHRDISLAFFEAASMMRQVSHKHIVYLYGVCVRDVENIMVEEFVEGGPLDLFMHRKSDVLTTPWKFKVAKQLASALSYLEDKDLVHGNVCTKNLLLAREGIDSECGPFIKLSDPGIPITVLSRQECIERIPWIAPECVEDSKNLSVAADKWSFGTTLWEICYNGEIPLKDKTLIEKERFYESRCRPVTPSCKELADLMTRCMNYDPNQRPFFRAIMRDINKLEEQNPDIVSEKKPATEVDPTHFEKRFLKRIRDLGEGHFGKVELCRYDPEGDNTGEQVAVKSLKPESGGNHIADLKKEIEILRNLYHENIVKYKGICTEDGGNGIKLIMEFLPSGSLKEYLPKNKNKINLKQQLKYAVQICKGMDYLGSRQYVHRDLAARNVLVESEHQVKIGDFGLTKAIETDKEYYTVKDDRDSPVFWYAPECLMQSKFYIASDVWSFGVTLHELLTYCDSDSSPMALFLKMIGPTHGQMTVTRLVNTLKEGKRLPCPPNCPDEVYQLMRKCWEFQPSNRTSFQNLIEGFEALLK

[31] = biological target: Serine/threonine-protein kinase 33 (Homo sapiens) (UniProt Q9BYT3); conditions: Compound concentration 1000.0 nM
Chain of Serine/threonine-protein kinase 33 (Homo sapiens) (Q9BYT3 whole entry, looked up): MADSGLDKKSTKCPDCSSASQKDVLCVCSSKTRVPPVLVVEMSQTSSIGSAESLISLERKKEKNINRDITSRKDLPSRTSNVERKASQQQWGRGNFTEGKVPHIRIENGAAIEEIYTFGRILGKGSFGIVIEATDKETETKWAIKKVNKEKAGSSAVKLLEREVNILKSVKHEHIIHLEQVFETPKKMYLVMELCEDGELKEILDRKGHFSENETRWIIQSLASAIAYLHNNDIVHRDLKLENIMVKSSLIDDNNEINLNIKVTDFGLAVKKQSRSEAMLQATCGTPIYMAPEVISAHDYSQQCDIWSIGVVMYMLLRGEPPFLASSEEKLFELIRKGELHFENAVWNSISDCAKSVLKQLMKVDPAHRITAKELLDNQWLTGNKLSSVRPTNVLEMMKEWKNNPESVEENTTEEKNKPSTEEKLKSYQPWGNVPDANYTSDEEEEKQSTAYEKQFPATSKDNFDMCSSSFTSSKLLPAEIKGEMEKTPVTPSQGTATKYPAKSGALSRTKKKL

[32] = biological target: Casein kinase II subunit alpha' (Homo sapiens) (UniProt P19784); conditions: Compound concentration 1000.0 nM

Chain of Ephrin type-B receptor 1 (Homo sapiens) (P54762 whole entry): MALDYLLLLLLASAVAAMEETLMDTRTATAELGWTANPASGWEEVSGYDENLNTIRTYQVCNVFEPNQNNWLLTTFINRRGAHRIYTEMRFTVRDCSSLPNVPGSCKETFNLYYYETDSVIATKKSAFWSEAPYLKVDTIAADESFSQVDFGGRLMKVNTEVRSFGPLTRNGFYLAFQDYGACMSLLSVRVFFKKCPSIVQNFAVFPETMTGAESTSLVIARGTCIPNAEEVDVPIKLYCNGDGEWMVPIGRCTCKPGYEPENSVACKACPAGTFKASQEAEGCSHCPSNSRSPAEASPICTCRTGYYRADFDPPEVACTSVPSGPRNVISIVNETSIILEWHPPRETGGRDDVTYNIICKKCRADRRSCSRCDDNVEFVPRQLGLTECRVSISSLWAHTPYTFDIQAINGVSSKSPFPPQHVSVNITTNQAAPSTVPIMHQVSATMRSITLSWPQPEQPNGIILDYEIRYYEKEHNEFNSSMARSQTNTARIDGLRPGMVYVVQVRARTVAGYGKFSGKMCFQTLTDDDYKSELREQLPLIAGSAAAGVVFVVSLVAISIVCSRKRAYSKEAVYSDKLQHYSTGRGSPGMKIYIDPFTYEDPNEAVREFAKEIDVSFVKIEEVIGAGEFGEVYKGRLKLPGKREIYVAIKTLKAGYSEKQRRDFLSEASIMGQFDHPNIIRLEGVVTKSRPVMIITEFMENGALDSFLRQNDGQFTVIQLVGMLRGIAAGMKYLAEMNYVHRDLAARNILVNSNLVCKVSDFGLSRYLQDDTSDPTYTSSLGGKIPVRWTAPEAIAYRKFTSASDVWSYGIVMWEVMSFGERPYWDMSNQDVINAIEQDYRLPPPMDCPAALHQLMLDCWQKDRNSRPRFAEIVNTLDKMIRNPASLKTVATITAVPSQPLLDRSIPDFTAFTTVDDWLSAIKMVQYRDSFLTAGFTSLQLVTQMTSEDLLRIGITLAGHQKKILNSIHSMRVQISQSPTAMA
Chain of Tumor necrosis factor (Homo sapiens) (P01375 whole entry): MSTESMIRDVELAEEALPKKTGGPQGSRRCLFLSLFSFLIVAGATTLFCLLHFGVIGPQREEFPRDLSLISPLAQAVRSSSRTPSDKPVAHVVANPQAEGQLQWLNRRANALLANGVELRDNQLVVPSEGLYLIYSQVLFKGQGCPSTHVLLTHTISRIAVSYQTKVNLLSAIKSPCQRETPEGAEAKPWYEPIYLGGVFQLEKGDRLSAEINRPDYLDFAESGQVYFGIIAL

CNC(=O)Nc1ccc2c(c1)CC[C@@]21OC(=O)N(CC(=O)N(Cc2ccc(F)cc2)[C@@H](C)C(F)(F)F)C1=O [A-485]
inactive: residual activity [1] 97% | inhibition [2] 1% | residual activity [3] 73% | residual activity [4] 100% | residual activity [5] 63% | residual activity [6] 63% | residual activity [7] 91% | inhibition [8] 2.64% | residual activity [9] 88% | residual activity [10] 92% | residual activity [11] 88% | residual activity [12] 74% | residual activity [13] 82% | residual activity [14] 84% | inhibition [15] 26.5% | residual activity [16] 71% | residual activity [17] 92% | residual activity [18] 98% | residual activity [19] 79% | residual activity [20] 92% | residual activity [21] 97% | residual activity [22] 100% | residual activity [23] 96% | residual activity [24] 86% | residual activity [25] 97% | inhibition [26] 9.97% | residual activity [27] 93% | residual activity [28] 86% | residual activity [29] 75% | residual activity [30] 100% | residual activity [31] 100% | residual activity [32] 100%

CNC(=O)Nc1ccc2c(c1)[C@@]1(CC2)OC(=O)N(CC(=O)N(Cc2ccc(F)cc2)[C@@H](C)C(F)(F)F)C1=O [A-486]
inactive: residual activity [1] 100% | inhibition [2] 1% | residual activity [3] 80% | residual activity [4] 99% | residual activity [5] 54% | residual activity [6] 96% | residual activity [7] 84% | inhibition [8] 5.42% | residual activity [9] 87% | residual activity [10] 100% | residual activity [11] 100% | residual activity [12] 82% | residual activity [13] 76% | residual activity [14] 93% | inhibition [15] 10.2% | residual activity [16] 87% | residual activity [17] 100% | residual activity [18] 89% | residual activity [19] 100% | residual activity [20] 100% | residual activity [21] 74% | residual activity [22] 95% | residual activity [23] 100% | residual activity [24] 100% | residual activity [25] 98% | inhibition [26] 0.29% | residual activity [27] 79% | residual activity [28] 90% | residual activity [29] 85% | residual activity [30] 85% | residual activity [31] 100% | residual activity [32] 90%
